Results on 13 molecules are retold here after article PMC6445226, “Kinetic study on the inhibition of xanthine oxidase by acylated derivatives of flavonoids synthesised enzymatically” (Journal of Enzyme Inhibition and Medicinal Chemistry, 2017).

Data set [1] concerns XO. Further details: method as in earlier work. The following applies: XO inhibition; cited from earlier work.
The target of data set [2] is T1, xanthine oxidase from bovine milk (Bos taurus, UniProt P80457).
T1 construct: xanthine oxidase from bovine milk; purchased Sigma-Aldrich Chemical Co., St. Louis, MO; host or cells: bovine milk (natural source)
T1 sequence (P80457 whole entry): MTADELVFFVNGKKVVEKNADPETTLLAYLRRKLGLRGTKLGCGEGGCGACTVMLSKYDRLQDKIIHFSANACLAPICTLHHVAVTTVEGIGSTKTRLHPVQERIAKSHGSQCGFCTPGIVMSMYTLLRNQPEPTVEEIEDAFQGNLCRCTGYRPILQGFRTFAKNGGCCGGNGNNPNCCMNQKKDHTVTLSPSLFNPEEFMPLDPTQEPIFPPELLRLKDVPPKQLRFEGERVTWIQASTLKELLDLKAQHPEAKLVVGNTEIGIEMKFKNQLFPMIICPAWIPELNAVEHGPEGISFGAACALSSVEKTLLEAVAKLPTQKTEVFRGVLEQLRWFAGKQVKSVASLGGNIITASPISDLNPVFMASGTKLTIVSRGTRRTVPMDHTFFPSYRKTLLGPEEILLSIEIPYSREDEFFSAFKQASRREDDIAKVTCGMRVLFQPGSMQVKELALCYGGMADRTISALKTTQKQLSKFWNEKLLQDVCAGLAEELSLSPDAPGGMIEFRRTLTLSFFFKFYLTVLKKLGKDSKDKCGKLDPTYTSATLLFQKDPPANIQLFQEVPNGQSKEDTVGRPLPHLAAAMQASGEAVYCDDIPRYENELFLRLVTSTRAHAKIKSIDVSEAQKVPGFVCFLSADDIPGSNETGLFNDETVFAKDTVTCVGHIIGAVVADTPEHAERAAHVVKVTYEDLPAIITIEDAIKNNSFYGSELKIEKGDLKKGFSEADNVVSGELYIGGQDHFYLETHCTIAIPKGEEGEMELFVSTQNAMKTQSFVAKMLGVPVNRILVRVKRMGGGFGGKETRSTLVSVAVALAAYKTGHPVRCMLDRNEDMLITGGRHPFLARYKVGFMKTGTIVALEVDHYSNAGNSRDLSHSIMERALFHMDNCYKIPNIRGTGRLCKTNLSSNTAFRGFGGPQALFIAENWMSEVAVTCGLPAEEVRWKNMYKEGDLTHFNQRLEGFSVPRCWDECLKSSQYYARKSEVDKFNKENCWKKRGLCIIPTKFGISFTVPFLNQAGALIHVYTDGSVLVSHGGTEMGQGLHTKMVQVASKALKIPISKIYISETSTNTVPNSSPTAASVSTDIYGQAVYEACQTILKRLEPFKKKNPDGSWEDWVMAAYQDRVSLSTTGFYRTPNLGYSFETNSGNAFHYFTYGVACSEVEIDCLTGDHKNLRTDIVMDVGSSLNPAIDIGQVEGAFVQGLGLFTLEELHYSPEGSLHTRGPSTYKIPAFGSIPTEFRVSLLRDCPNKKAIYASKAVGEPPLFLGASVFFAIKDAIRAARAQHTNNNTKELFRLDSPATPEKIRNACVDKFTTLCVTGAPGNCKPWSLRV
Nature of the data set: Inhibition of xanthine oxidase (XO) activity, uric acid formed from xanthine, absorbance at 290 nm. The conditions noted are these: for IC50: value of x when y = 50 from straight line equation of XOI % vs concentration; for inhibition at 45 µM: read-out: Xanthine oxidase inhibition (XOI %). The format is biochemical.
Procedure: Inhibition of XO activity was assessed by measuring the uric acid formed from the xanthine substrate. Solutions of xanthine in various concentrations in a 0.1 M, pH 7.4 phosphate buffer were incubated together with 100 μl of ethanol and the same volume of samples of the solutions with different concentrations (45 and 90 μM in a 0.1 M, pH 7.4 phosphate buffer). The samples were pre-incubated at 37 °C for 10 min. The XO solution (0.3 ml, 0.1 U/ml) was added to the reaction mixture and the flasks were incubated at 37 °C for 20 min. The enzymatic reaction was interrupted by adding 25 μl of 3.2% HCl. The absorption of the samples was measured using an ELISA reader Epoch, BioTek (Winooski, VT) at 290 nm. The uric acid production was calculated from the differential absorbance with a blank solution without xanthine oxidase. The control was a solution containing xanthine and XO.
Vmax (maximum reaction rate) and Km (Michaelis–Menten constant, that is the substrate concentration at 1/2 the maximum reaction rate) were calculated and the type of inhibition kinetics was identified using the Origin 8.6 program and the rectangular hyperbola model. […] Reaction rate (expressed as uric acid concentration in μmol/min) was obtained from the uric acid standard curve (y = 0.024x − 0.1242, R^2 = 0.9786).

Data set [3] is described as follows: Partition coefficient determination in octanol/water (k). In kind it is physicochemical. The following applies: octan-1-ol/water, 50 μM sample, UHPLC-MS; SD <0.01. The protocol: The partition coefficients of the untreated flavonoids in octanol/water (k) were analysed to determine their degrees of lipophilicity. In test tubes, 2.0 ml of a solution of the sample with a concentration of 50 μM were added to 2.0 ml of octanol saturated with water. The mixture was shaken for 1 min and then centrifuged for 15 min at 3000 rpm. […] The partition coefficient was obtained using the equation: k=Co/Ca×r; where Co = test compound concentration in octanol, Ca = test compound concentration in aqueous solution, r = ratio of the volumes of the oily and the aqueous phases.

Data set [4] has as its system XO. On the set-up: method as in PMID 12231379. The conditions noted are these: XO inhibition; cited from earlier work.
The mark [5] stands for this setting: inhibitor at 45 μM, 250 μM of xanthine substrate, derivatives after 12 h of enzymatic acylation.

Read-outs that look alike come from different tables or passages of the source.

Usually IC50 stands for the point on the concentration scale where inhibition reaches its midpoint. Consider isoquercitrin butyrate, for which, in the data set with XO [1], the half-inhibitory concentration (IC50) is 144 µM.

Naringin decanoate: the “Xanthine oxidase inhibition (XOI %)” value in data set [2] (setting [5]) is reported as 25.61 ± 2.85%. Also, in data set [2], 118 µM corresponded to half-maximal inhibition (IC50). Moreover, the “Partition coefficient (k)” value in data set [3] is reported as 0.86. On to isoquercitrin stearate, for which, in the data set with XO [1], the IC50 is 61 µM. As for `COc1ccc([C@@H]2CC(=O)c3c(O)cc(O[C@@H]4O[C@H](CO[C@@H]5O[C@@H](C)[C@H](O)[C@@H](O)[C@H]5O)[C@@H](O)[C@H](O)[C@H]4O)cc3O2)cc1O` [Hesperidin, hesperidin], the “Xanthine oxidase inhibition (XOI %)” value in data set [2] (setting [5]) was 8.24 ± 2.10%. In data set [2], this molecule came in with a half-inhibitory concentration (IC50) of 333 µM. In addition, in data set [3], the “Partition coefficient (k)” value came to 0.42. As a reminder, the inhibition is how much of the control response was suppressed. `Oc1ncnc2[nH]ncc12` [Allopurinol, allopurinol]: the inhibition at 45 µM in data set [2] amounted to 89.7%.

As to `C[C@@H]1O[C@@H](O[C@H]2[C@H](Oc3cc(O)c4c(c3)O[C@H](c3ccc(O)cc3)CC4=O)O[C@H](CO)[C@@H](O)[C@@H]2O)[C@H](O)[C@H](O)[C@H]1O` [Naringin, naringin], the inhibition at 45 µM in data set [2] (setting [5]) came to 14.8 ± 4.8%. Further, the half-inhibitory concentration (IC50) in data set [2] came to 206 µM. Moreover, the “Partition coefficient (k)” value in data set [3] is reported as 0.37. With `O=c1c(O)c(-c2ccc(O)cc2O)oc2cc(O)cc(O)c12` [morin], the half-maximal inhibitory concentration (IC50) with XO [4] was 40 µM. With Naringin octanoate, the “Xanthine oxidase inhibition (XOI %)” value in data set [2] (setting [5]) is listed as 28.80 ± 5.76%. Also, in data set [2], the IC50 was found to be 110 µM. As for `C[C@@H]1O[C@@H](OC[C@H]2O[C@@H](Oc3c(-c4ccc(O)c(O)c4)oc4cc(O)cc(O)c4c3=O)[C@H](O)[C@@H](O)[C@@H]2O)[C@H](O)[C@H](O)[C@H]1O` [Rutin, rutin], the “Partition coefficient (k)” value in data set [3] is given as 0.48.

For the molecule `O=c1c(O)c(-c2ccc(O)c(O)c2)oc2cc(O)cc(O)c12` [Quercetin, quercetin], the “Partition coefficient (k)” value in data set [3] came out at 1.46. As to isoquercitrin oleate, in the data set on XO [1], the 50% inhibitory concentration (IC50) was 27 µM. For the molecule Hesperidin decanoate, the “Xanthine oxidase inhibition (XOI %)” value in data set [2] (setting [5]) was found to be 16.42 ± 3.21%. In data set [2], this molecule came in with a concentration for half-maximal inhibition (IC50) of 199 µM. The “Partition coefficient (k)” value in data set [3] is given as 0.83. In the case of `O=c1c(O)c(-c2ccc(O)cc2)oc2cc(O)cc(O)c12` [kaempferol], in the data set on XO [4], the IC50 was 2.5 µM.
